Data on 35 compounds can be found in patent publication US20230416205A1, “COMPOUNDS, COMPOSITIONS, AND METHODS” (Denali Therapeutics Inc, priority 2020, published 2023).

Each structure is given as a SMILES string.

The assay concerns NLRP3. As to the kind of experiment: IL-1β secretion assay in PMA-differentiated, LPS/nigericin-stimulated THP-1 cells (384-well, ELISA read-out). It counts as cell-based, human. The settings on record: Homo sapiens, THP-1, Table 4; IL-1β secretion, LPS/nigericin-stimulated THP-1 cells; read-out: IC50. The gist of the method: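 Secreted IL-1β quantified by capture ELISA from supernatants of PMA-differentiated THP-1 cells (30K per well). Sequence: LPS 25 ng/mL priming 2 h, compound 1 h, nigericin 2 h; dose-responses normalized between high (LPS plus 5 μM nigericin) and low (LPS alone) controls.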
`Cc1nc(NC(=O)CN2CC3(CC3)c3cc(Br)ccc3C2=O)nn1C` [Example 376, 2-(6-bromo-1-oxospiro[3H-isoquinoline-4,1′-cyclopropane]-2-yl)-N-(1,5-dimethyl-1,2,4-triazol-3-yl)acetamide]: the IC50 (usually the concentration needed to halve the response being measured) came out at 1830 nM. With `O=C(CN1CC2(CC2)c2cc(Br)ccc2C1=O)Nc1noc2ccccc12` [Example 377, N-(1,2-benzoxazol-3-yl)-2-(6-bromo-1-oxospiro[3H-isoquinoline-4,1′-cyclopropane]-2-yl)acetamide], the IC50 was determined as 2250 nM. With `CCOC(=O)N1CCC(NC(=O)CN2CC3(CC3)c3cc(Br)ccc3C2=O)CC1` [Example 378, ethyl 4-[[2-(6-bromo-1-oxospiro[3H-isoquinoline-4,1′-cyclopropane]-2-yl)acetyl]amino]piperidine-1-carboxylate], the IC50 amounted to 4980 nM.

In the case of `O=C(CN1CC2(CC2)c2cc(Br)ccc2C1=O)NC1CCN(c2ccccn2)CC1` [Example 379, 2-(6-bromo-1-oxospiro[3H-isoquinoline-4,1′-cyclopropane]-2-yl)-N-(1-pyridin-2-ylpiperidin-4-yl)acetamide], the IC50 stood at 8920 nM. Under `O=C(CN1CC2(CC2)c2cc(Br)ccc2C1=O)NC1CCN(c2ncccn2)CC1` [Example 380, 2-(6-bromo-1-oxospiro[3H-isoquinoline-4,1′-cyclopropane]-2-yl)-N-(1-pyrimidin-2-ylpiperidin-4-yl)acetamide] stands 11400 nM; under `O=C(CN1CC2(CC2)c2cc(Br)ccc2C1=O)N[C@@H]1CCN(C2COC2)C1` [Example 381, 2-(6-bromo-1-oxospiro[3H-isoquinoline-4,1′-cyclopropane]-2-yl)-N-[(3R)-1-(oxetan-3-yl)pyrrolidin-3-yl]acetamide], 12100 nM; under `COCC1CC(NC(=O)CN2CC3(CC3)c3cc(Br)ccc3C2=O)C1` (centres unmarked) [Example 382, 2-(6-bromo-1-oxospiro[3H-isoquinoline-4,1′-cyclopropane]-2-yl)-N-[3-(methoxymethyl)cyclobutyl]acetamide], 8790 nM. As for `O=C(CN1CC2(CC2)c2cc(Br)ccc2C1=O)Nc1cc2ccccn2n1` [Example 383], the IC50 stood at 1230 nM. For `CCN1CC[C@@H](NC(=O)CN2CC3(CC3)c3cc(Br)ccc3C2=O)C1` [Example 384, 2-(6-bromo-1-oxospiro[3H-isoquinoline-4,1′-cyclopropane]-2-yl)-N-[(3R)-1-ethylpyrrolidin-3-yl]acetamide] the value was 11600 nM; for `O=C(CN1CC2(CC2)c2cc(Br)ccc2C1=O)Nc1cn2ccccc2n1` [Example 385], 1820 nM; for `O=C(CN1CC2(CC2)c2cc(Br)ccc2C1=O)Nc1nc2c(o1)CCCC2` [Example 386, 2-(6-bromo-1-oxospiro[3H-isoquinoline-4,1′-cyclopropane]-2-yl)-N-(4,5,6,7-tetrahydro-1,3-benzoxazol-2-yl)acetamide], 1450 nM.

Regarding `O=C(CN1CC2(CC2)c2cc(Br)ccc2C1=O)NC1CCN(c2cccnn2)CC1` [Example 387, 2-(6-bromo-1-oxospiro[3H-isoquinoline-4,1′-cyclopropane]-2-yl)-N-(1-pyridazin-3-ylpiperidin-4-yl)acetamide], the IC50 amounted to 5290 nM. For `Cc1c(C#N)cnc(NC(=O)CN2CC3(CC3)c3cc(Br)ccc3C2=O)c1F` [Example 389, 2-(6-bromo-1-oxospiro[3H-isoquinoline-4,1′-cyclopropane]-2-yl)-N-(5-cyano-3-fluoro-4-methylpyridin-2-yl)acetamide] the value was 546 nM; for `Cc1nc(NC(=O)CN2CC3(CC3)c3cc(Br)ccc3C2=O)c(F)cc1C#N` [Example 390, 2-(6-bromo-1-oxospiro[3H-isoquinoline-4,1′-cyclopropane]-2-yl)-N-(5-cyano-3-fluoro-6-methylpyridin-2-yl)acetamide], 9840 nM; for `COc1ncc(F)c(NC(=O)CN2CC3(CC3)c3cc(Br)ccc3C2=O)n1` [Example 391, 2-(6-bromo-1-oxospiro[3H-isoquinoline-4,1′-cyclopropane]-2-yl)-N-(5-fluoro-2-methoxypyrimidin-4-yl)acetamide], 22400 nM. Under `N#Cc1cc(F)cnc1NC(=O)CN1CC2(CC2)c2cc(Br)ccc2C1=O` [Example 392, 2-(6-bromo-1-oxospiro[3H-isoquinoline-4,1′-cyclopropane]-2-yl)-N-(3-cyano-5-fluoropyridin-2-yl)acetamide] stands 5700 nM. For `CCN1CCC12CC(NC(=O)CN1CC3(CC3)c3cc(Br)ccc3C1=O)C2` (centres unmarked) [Example 393, 2-(6-bromo-1-oxospiro[3H-isoquinoline-4,1′-cyclopropane]-2-yl)-N-(1-ethyl-1-azaspiro[3.3]heptan-6-yl)acetamide], the IC50 came out at 7890 nM.

For the compound `CC(C)(C)OC(=O)N1CCC12CC(NC(=O)CN1CC3(CC3)c3cc(Br)ccc3C1=O)C2` (centres unmarked) [Example 394, tert-butyl 6-[[2-(6-bromo-1-oxospiro[3H-isoquinoline-4,1′-cyclopropane]-2-yl)acetyl]amino]-1-azaspiro[3.3]heptane-1-carboxylate], the IC50 amounted to 5210 nM.

On to `N#Cc1cnc(NC(=O)CN2CC3(CC3)c3cc(Br)ccc3C2=O)c(Cl)c1` [Example 395, 2-(6-bromo-1-oxospiro[3H-isoquinoline-4,1′-cyclopropane]-2-yl)-N-(3-chloro-5-cyanopyridin-2-yl)acetamide], for which the IC50 stood at 1380 nM.

`Cc1cnc(NC(=O)CN2CC3(CC3)c3cc(Br)ccc3C2=O)c(F)c1` [Example 396, 2-(6-bromo-1-oxospiro[3H-isoquinoline-4,1′-cyclopropane]-2-yl)-N-(3-fluoro-5-methylpyridin-2-yl)acetamide]: the IC50 was 1600 nM. For `Cc1cc(C#N)cnc1NC(=O)CN1CC2(CC2)c2cc(Br)ccc2C1=O` [Example 397, 2-(6-bromo-1-oxospiro[3H-isoquinoline-4,1′-cyclopropane]-2-yl)-N-(5-cyano-3-methylpyridin-2-yl)acetamide] the value was 2000 nM; for `O=C(CN1CC2(CC2)c2cc(Br)ccc2C1=O)Nc1ccc2cnsc2c1` [Example 398, N-(1,2-benzothiazol-6-yl)-2-(6-bromo-1-oxospiro[3H-isoquinoline-4,1′-cyclopropane]-2-yl)acetamide], 1910 nM.

Consider `Cc1cnc2ccc(NC(=O)CN3CC4(CC4)c4cc(Br)ccc4C3=O)nn12` [Example 399, 2-(6-bromo-1-oxospiro[3H-isoquinoline-4,1′-cyclopropane]-2-yl)-N-(3-methylimidazo[1,2-b]pyridazin-6-yl)acetamide], for which the IC50 is 1350 nM. Under `Cc1cn2nc(NC(=O)CN3CC4(CC4)c4cc(Br)ccc4C3=O)ccc2n1` [Example 400, 2-(6-bromo-1-oxospiro[3H-isoquinoline-4,1′-cyclopropane]-2-yl)-N-(2-methylimidazo[1,2-b]pyridazin-6-yl)acetamide] stands 612 nM. Under `COc1ncnc(NC(=O)CN2CC3(CC3)c3cc(Br)ccc3C2=O)c1F` [Example 401, 2-(6-bromo-1-oxospiro[3H-isoquinoline-4,1′-cyclopropane]-2-yl)-N-(5-fluoro-6-methoxypyrimidin-4-yl)acetamide] stands 1890 nM; under `Cc1c(NC(=O)CN2CC3(CC3)c3cc(Br)ccc3C2=O)nn2ccccc12` [Example 402, 2-(6-bromo-1-oxospiro[3H-isoquinoline-4,1′-cyclopropane]-2-yl)-N-(3-methylpyrazolo[1,5-a]pyridin-2-yl)acetamide], 9270 nM. Under `O=C(CN1CC2(CC2)c2cc(Br)ccc2C1=O)Nc1nn2ccccc2c1F` [Example 403, 2-(6-bromo-1-oxospiro[3H-isoquinoline-4,1′-cyclopropane]-2-yl)-N-(3-fluoropyrazolo[1,5-a]pyridin-2-yl)acetamide] stands 2320 nM. Consider `O=C(CN1CC2(CC2)c2cc([C@@]3(F)C[C@H]3C(F)(F)F)ccc2C1=O)Nc1ncc(F)cn1` [Example 404, N-(5-fluoropyrimidin-2-yl)-2-[6-[(1r,2r)-1-fluoro-2-(trifluoromethyl)cyclopropyl]-1-oxospiro[3H-isoquinoline-4,1′-cyclopropane]-2-yl]acetamide], for which the IC50 was found to be 3890 nM.

As for `CC1(C)COC(NC(=O)CN2CC3(CC3)c3cc(Br)ccc3C2=O)=N1` [Example 405, 2-(6-bromo-1-oxospiro[3H-isoquinoline-4,1′-cyclopropane]-2-yl)-N-(4,4-dimethyl-5H-1,3-oxazol-2-yl)acetamide], the IC50 amounted to 18000 nM. With `O=C(CN1CC2(CC2)c2cc(Br)ccc2C1=O)NC1CCNC1=O` (centres unmarked) [Example 406, 2-(6-bromo-1-oxospiro[3H-isoquinoline-4,1′-cyclopropane]-2-yl)-N-(2-oxopyrrolidin-3-yl)acetamide], the IC50 came to 16100 nM. Regarding `COc1cccnc1NC(=O)CN1CC2(CC2)c2cc(Br)ccc2C1=O` [Example 407, 2-(6-bromo-1-oxospiro[3H-isoquinoline-4,1′-cyclopropane]-2-yl)-N-(3-methoxypyridin-2-yl)acetamide], the IC50 was found to be 4280 nM. As for `Cn1ncc2cnc(NC(=O)CN3CC4(CC4)c4cc(Br)ccc4C3=O)nc21` [Example 408, 2-(6-bromo-1-oxospiro[3H-isoquinoline-4,1′-cyclopropane]-2-yl)-N-(1-methylpyrazolo[3,4-d]pyrimidin-6-yl)acetamide], the IC50 stood at 827 nM. `O=C(CN1CC2(CC2)c2cc(Br)ccc2C1=O)Nc1ncc2ncsc2n1` [Example 409, 2-(6-bromo-1-oxospiro[3H-isoquinoline-4,1′-cyclopropane]-2-yl)-N-([1,3]thiazolo[5,4-d]pyrimidin-5-yl)acetamide]: the IC50 is 1370 nM. For `O=C(CN1CC2(CC2)c2cc(Br)ccc2C1=O)Nc1ccnnc1` [Example 410, 2-(6-bromo-1-oxospiro[3H-isoquinoline-4,1′-cyclopropane]-2-yl)-N-pyridazin-4-ylacetamide] the value was 1520 nM; for `O=C(CN1CC2(CC2)c2cc(Br)ccc2C1=O)Nc1cnccn1` [Example 411, 2-(6-bromo-1-oxospiro[3H-isoquinoline-4,1′-cyclopropane]-2-yl)-N-pyrazin-2-ylacetamide], 1340 nM.
